Source: patent US10729643B2, “Methods for administration and methods for treating cardiovascular diseases with resiniferatoxin” (priority 2013, dated 2020)

Key:
[1] = test system: myocardium of sham and CHF rats; experiment: Cardiac apoptosis: TUNEL staining and cleaved caspase 3; format: in vivo, rat
Description: This example illustrates the effects of RTX on cardiac fibrosis in sham and CHF rats. Considering that RTX-mediated reduction in LVEDP in CHF rats may be related to an improvement in cardiac compliance, we further evaluated cardiac fibrosis using picrosirus red staining and protein expression of two fibrotic markers (a smooth muscle actin and fibronectin) as well as their upstream activator, transforming growth factor (TGF) β receptor I in the non-infarcted LV and inter-ventricular septum (IVS) walls from sham and CHF rats treated with either vehicle or RTX. For histopathology, the rat heart was fixed in 10% phosphate buffered formalin, embedded in paraffin, and cut into 10 μm serial sections from apex to base. Picrosirius red staining was performed to detect myocardial fibrosis. Immunohistochemistry staining of cleaved caspase 3 (CC3) was also performed in paraffin sections from the same heart tissues which were used for picrosirius red staining experiments.
This example illustrates effects of RTX on cardiac apoptosis in sham and CHF rats. Cardiac remodeling includes hypertrophy, fibrosis and apoptosis. Based on the beneficial effects of RTX on cardiac hypertrophy and cardiac fibrosis in CHF rats, we further investigated the effect of RTX on cardiac apoptosis in sham and CHF rats. TUNEL staining was performed. Terminal deoxynucleotidyl transferase dUTP-mediated nick-end labeling (TUNEL) staining and analysis was performed to evaluate the effect of RTX on cardiac apoptosis. Representative photomicrographs are depicted in FIG. 6A.

[2] = test system: nerve endings in the skin; conditions: topical administration at the nerve endings in the skin; cited from earlier work
sham and CHF rats = experiment: In vivo left ventricular PV loop analysis
[3] = test system: sham and CHF rats (coronary artery ligation); experiment: Hemodynamic, morphological and echocardiographic measurements in sham and CHF rats; format: in vivo, rat; conditions: for DAP: diastolic arterial pressure; for HR: heart rate; for HW/BW: heart weight/body weight; for LVEDP: left ventricle end-diastolic pressure; for MAP: mean arterial pressure; for SAP: systolic arterial pressure; for WLW/BW: wet lung weight/body weight
Method: In order to desensitize cardiac sympathetic afferents in rats, resiniferatoxin (RTX, 1 mg; Sigma Aldrich) was dissolved in 2 ml of ethanol and mixed with 18 ml of Tween in isotonic saline. RTX (50 μg/ml) was applied twice on the entire left and right ventricles with a swab just prior to coronary ligation. The dose of RTX was determined by preliminary experiments in which we found nearly complete ablation of TRPV1-expressing cardiac nerve endings on the surface of the rat heart for more than 10 weeks. Rat surgery was performed 9-11 weeks post-MI. Rats were anesthetized with urethane (800 mg/kg ip) and α-chloralose (40 mg/kg ip). Renal sympathetic nerve activity (RSNA) and cardiac sympathetic nerve activity (CSNA) were recorded for evaluating basal renal and cardiac sympathetic tone.
More specifically, we examined TRPV1 protein expression in cardiac nerve endings from vehicle and RTX-treated rats using immunofluorescence. Experiments were performed on male Sprague-Dawley rats weighing […]. In brief, terminal experiments were carried out 9-11 weeks after MI in rats treated with either RTX or vehicle. These experiments were approved by the Institutional Animal Care and Use Committee of the University of Nebraska Medical Center and carried out under the guidelines of the National Institutes of Health Guide for the Care and Use of Laboratory Animals. Heart failure was produced by coronary artery ligation as described in (Wang et al., J. Appl. Physiol. 2010; 108:1365-1375; and Wang et al. 2, Am. J. Physiol. Regul. Integr. Comp. Physiol. 2012; 320:R1260-R1270). Cardiac function in all experimental animals was measured 2 and 6 weeks after MI by echocardiography (VEVO 770, Visual Sonics, Inc.) as described in (Wang et al., J. Appl. Physiol. 2010; 108:1365-1375; Wang et al. 2, Am. J. Physiol. Regul. Integr. Comp. Physiol. 2012; 320:R1260-R1270; and Wang et al. 3, J. Physiol. 2010; 588:5033-5047).
This example illustrates an effect of RTX on body weight, organ weight, and hemodynamics in sham and CHF rats.

C=C(C)[C@]12C[C@@H](C)[C@@]34O[C@](Cc5ccccc5)(O[C@@H]1[C@@H]3C=C(COC(=O)Cc1ccc(O)c(OC)c1)C[C@]1(O)C(=O)C(C)=C[C@@H]41)O2 [RTX, resiniferatoxin]
TUNEL-positive cells ([1]; LV infarct, LV peri-infarct, LV remote and IVS regions, CHF+RTX vs CHF+vehicle): markedly reduced | increased cleaved caspase 3-positive cardiomyocytes ([1]; LV peri-infarct, LV remote and IVS regions, CHF rats, immunohistochemistry): largely prevented | elevated protein expression of cleaved caspase 3 ([1]; LV remote and IVS regions, CHF rats): prevented | difference in number of TUNEL-positive cells in the heart ([1]; sham+vehicle vs sham+RTX rats): no significant difference | sensitivity to chemical pain stimulation [2]: long-lasting insensitivity | basal contractile function (dP/dtmax, PRSW and ESPVR) (sham and CHF rats; CHF rats): did not have a significant effect | LV chamber size (sham and CHF rats; CHF+RTX vs CHF+vehicle): reduction | Tau and LVEDP (sham and CHF rats; CHF+RTX vs CHF+vehicle): reduced | dP/dtmin (sham and CHF rats; CHF+RTX vs CHF+vehicle): increased | ventricular stiffness as shown by the EDPVR (sham and CHF rats; CHF+RTX vs CHF+vehicle): reduced stiffness | contractile and relaxation parameters (sham and CHF rats; sham rats): no effect | difference in ejection fraction or fractional shortening ([3]; 2 weeks and 6 weeks after MI, CHF+RTX vs CHF+vehicle): no significant difference | DAP ([3]; CHF + RTX (n = 25), mean ± SE): 90.8 ± 2.2 mmHg | Heart weight ([3]; CHF + RTX (n = 25), epicardial RTX 50 μg/ml at coronary ligation, 9-11 weeks post-MI, mean ± SE): 1650 ± 49 mg | HR ([3]; CHF + RTX (n = 25), mean ± SE): 348.3 ± 5.5 bpm | HW/BW ([3]; CHF + RTX (n = 25), mean ± SE): 3.8 ± 0.1 mg/g | LVEDP ([3]; CHF + RTX (n = 25), mean ± SE): 8.3 ± 0.7 mmHg | MAP ([3]; CHF + RTX (n = 25), mean ± SE): 101.3 ± 2.1 mmHg | Infarct size ([3]; CHF + RTX (n = 25), mean ± SE): 39.1 ± 1.2 % | dp/dtmax ([3]; CHF + RTX (n = 25), mean ± SE): 5446 ± 173 | dp/dtmin ([3]; CHF + RTX (n = 25), mean ± SE): −4643 ± 149 | SAP ([3]; CHF + RTX (n = 25), mean ± SE): 120.8 ± 2.3 mmHg | WLW/BW ([3]; CHF + RTX (n = 25), mean ± SE): 5.1 ± 0.2 mg/g | MI-induced cardiac dilation (LV systolic and diastolic diameters and volumes) ([3]; CHF rats, echocardiography): significantly reduced | increased LVEDP observed in CHF+vehicle rats ([3]; CHF+RTX rats): largely prevented | decreased protein expression of in myocardium ([3]; CHF+RTX rats, western blot): partially reversed | blunted dp/dtmin ([3]; CHF+RTX vs CHF+vehicle rats): significantly increased | difference in dp/dtmax at rest ([3]; CHF+RTX vs CHF+vehicle rats): no significant difference | dp/dtmax response to isoproterenol (ISO) stimulation ([3]; CHF+RTX vs CHF+vehicle rats): significantly greater | heart weight and lung weight-to-body weight ratios ([3]; CHF+RTX vs CHF+vehicle rats): significant decrease | difference in infarct size ([3]; CHF+vehicle vs CHF+RTX rats): no significant difference | ejection fraction decrease ([3]; RTX treated rats (summary)): less | Infarct size ([3]; Sham + RTX (n = 20)): 0% | DAP ([3]; Sham + RTX (n = 20), mean ± SE): 92.8 ± 3.2 mmHg | Heart weight ([3]; Sham + RTX (n = 20), epicardial RTX 50 μg/ml, 9-11 weeks, mean ± SE): 1430 ± 30 mg | HR ([3]; Sham + RTX (n = 20), mean ± SE): 362.0 ± 6.8 bpm | HW/BW ([3]; Sham + RTX (n = 20), mean ± SE): 3.3 ± 0.1 mg/g | LVEDP ([3]; Sham + RTX (n = 20), mean ± SE): 4.8 ± 0.4 mmHg | MAP ([3]; Sham + RTX (n = 20), mean ± SE): 105.0 ± 3.1 mmHg | dp/dtmax ([3]; Sham + RTX (n = 20), mean ± SE): 8601 ± 224 | dp/dtmin ([3]; Sham + RTX (n = 20), mean ± SE): −8088 ± 196 | SAP ([3]; Sham + RTX (n = 20), mean ± SE): 128.8 ± 2.8 mmHg | WLW/BW ([3]; Sham + RTX (n = 20), mean ± SE): 4.5 ± 0.1 mg/g | differences in cardiac morphological, echocardiographic or hemodynamic parameters ([3]; sham+vehicle vs sham+RTX rats): no significant differences
